Laboratory results from ChEMBL document CHEMBL4219086, “Development of benzoxazole deoxybenzoin oxime and acyloxylamine derivatives targeting innate immune sensors and xanthine oxidase for treatment of gout” (Bioorg Med Chem, 2018).
Active and inactive are the calls of the source. No cut-off for these calls is given here.

Legend:
Rattus norvegicus [1] = test: (§1) Antiarthritic activity in MSU-induced acute gouty arthritis Sprague-Dawley rat model assessed as reduction in ankle swelling by measuring perimeter of ankle at 2.5 mg/kg, po qd pretreated via gavage for 5 days followed by MSU treatment at 1 hr post last dose measured after 4 hrs (reference value: 3.18 +/- 0.64 cm); assay type: functional
Rattus norvegicus [2] = test: as §1, with “10” for “2.5”; assay type: functional
Mus musculus [3] = test: In vivo inhibition of XOD activity in liver of Kunming mouse model of potassium oxonate-induced hyperuricemia at 10 mg/kg, po treated 1 hr post potassium oxonate addition measured after 1 hr relative to control; assay type: functional
Rattus norvegicus [4] = test: as §1, with “10” for “2.5”, “12” for “4”, “3.51” for “3.18”, “0.52” for “0.64”; assay type: functional
Rattus norvegicus [5] = test: as §1, with “2” for “4”, “2.82” for “3.18”, “0.75” for “0.64”; assay type: functional
Rattus norvegicus [6] = test: Inhibition of MSU-induced caspase-1 protein level in synovial homogenate of acute gouty arthritis Sprague-Dawley rat model at 2.5 to 10 mg/kg, po qd pretreated via gavage for 5 days followed by MSU treatment at 1 hr post last dose measured up to 24 hrs by Western blot method; assay type: functional, organism-based
Rattus norvegicus [7] = test: as §1, with “immediately” for “after 4 hrs”, “2.64” for “3.18”, “0.81” for “0.64”; assay type: functional
Rattus norvegicus [8] = test: Inhibition of MSU-induced p65 NFkappaB protein level in synovial homogenate of acute gouty arthritis Sprague-Dawley rat model at 2.5 to 10 mg/kg, po qd pretreated via gavage for 5 days followed by MSU treatment at 1 hr post last dose measured up to 24 hrs by Western blot method; assay type: functional, organism-based
[9] = target: T1, Xanthine dehydrogenase/oxidase (Homo sapiens, UniProt P47989); test: Inhibition of Xanthine oxidase (unknown origin) using xanthine as substrate preincubated for 1 to 5 mins followed by substrate addition
T1 sequence (P47989 whole entry): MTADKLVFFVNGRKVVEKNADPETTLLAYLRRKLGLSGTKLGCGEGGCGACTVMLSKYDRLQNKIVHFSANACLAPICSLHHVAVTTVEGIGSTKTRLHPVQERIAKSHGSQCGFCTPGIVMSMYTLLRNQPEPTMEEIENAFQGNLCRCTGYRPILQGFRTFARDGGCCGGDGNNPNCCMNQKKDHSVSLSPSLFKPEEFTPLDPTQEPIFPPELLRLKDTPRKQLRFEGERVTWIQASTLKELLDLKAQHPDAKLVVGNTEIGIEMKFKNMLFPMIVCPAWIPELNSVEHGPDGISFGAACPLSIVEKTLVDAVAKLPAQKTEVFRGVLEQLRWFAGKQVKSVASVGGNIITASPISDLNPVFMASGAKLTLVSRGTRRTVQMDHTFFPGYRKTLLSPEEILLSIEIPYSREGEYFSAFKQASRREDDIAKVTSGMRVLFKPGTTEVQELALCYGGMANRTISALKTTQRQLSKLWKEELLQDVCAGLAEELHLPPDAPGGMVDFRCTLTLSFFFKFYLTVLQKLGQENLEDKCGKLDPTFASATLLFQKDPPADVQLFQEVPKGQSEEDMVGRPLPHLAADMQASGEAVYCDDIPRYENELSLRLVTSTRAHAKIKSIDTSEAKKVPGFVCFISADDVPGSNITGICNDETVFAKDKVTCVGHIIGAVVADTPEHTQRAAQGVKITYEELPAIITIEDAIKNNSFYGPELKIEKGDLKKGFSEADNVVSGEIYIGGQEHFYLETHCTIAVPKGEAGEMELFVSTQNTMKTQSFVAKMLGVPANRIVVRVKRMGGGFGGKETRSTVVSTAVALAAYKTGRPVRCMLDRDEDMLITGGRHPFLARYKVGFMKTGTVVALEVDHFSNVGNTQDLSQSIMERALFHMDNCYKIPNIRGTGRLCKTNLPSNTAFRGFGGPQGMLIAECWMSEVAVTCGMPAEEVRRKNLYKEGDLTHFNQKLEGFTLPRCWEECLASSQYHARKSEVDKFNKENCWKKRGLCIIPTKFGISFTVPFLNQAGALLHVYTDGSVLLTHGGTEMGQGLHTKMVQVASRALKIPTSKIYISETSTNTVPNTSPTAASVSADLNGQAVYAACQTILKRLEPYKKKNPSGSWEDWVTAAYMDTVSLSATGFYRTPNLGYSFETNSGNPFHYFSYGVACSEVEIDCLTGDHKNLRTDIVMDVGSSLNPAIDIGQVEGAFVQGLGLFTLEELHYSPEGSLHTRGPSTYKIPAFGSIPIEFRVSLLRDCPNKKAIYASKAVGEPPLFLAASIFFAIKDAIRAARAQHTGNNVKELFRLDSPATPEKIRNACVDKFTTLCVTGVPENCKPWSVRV

Rattus norvegicus [10] = test: as §1, with “10” for “2.5”, “immediately” for “after 4 hrs”, “2.64” for “3.18”, “0.81” for “0.64”; assay type: functional
Rattus norvegicus [11] = test: as §1, with “24” for “4”, “3.35” for “3.18”, “0.5” for “0.64”; assay type: functional
Mus musculus [12] = test: Hypouricemic effect in Kunming mouse assessed as inhibition of hepatic XOD activity at 5 mg/kg, po measured after 1 hr relative to control; assay type: organism-based
Rattus norvegicus [13] = test: as §1, with “5” for “2.5”, “12” for “4”, “3.51” for “3.18”, “0.52” for “0.64”; assay type: functional
Mus musculus [14] = test: Hypouricemic effect in Kunming mouse assessed as inhibition of hepatic XOD activity at 10 mg/kg, po measured after 1 hr relative to control; assay type: organism-based
Rattus norvegicus [15] = test: as §1, with “10” for “2.5”, “24” for “4”, “3.35” for “3.18”, “0.5” for “0.64”; assay type: functional
Rattus norvegicus [16] = test: as §1, with “10” for “2.5”, “8” for “4”, “3.27” for “3.18”, “0.56” for “0.64”; assay type: functional
Rattus norvegicus [17] = test: as §1, with “5” for “2.5”, “immediately” for “after 4 hrs”, “2.64” for “3.18”, “0.81” for “0.64”; assay type: functional
Rattus norvegicus [18] = test: Inhibition of MSU-induced phosphorylated IkappaB protein level in synovial homogenate of acute gouty arthritis Sprague-Dawley rat model at 2.5 to 10 mg/kg, po qd pretreated via gavage for 5 days followed by MSU treatment at 1 hr post last dose measured up to 24 hrs by Western blot method; assay type: functional, organism-based
[19] = target: T1, Xanthine dehydrogenase/oxidase; test: Competitive inhibition of Xanthine oxidase (unknown origin) using xanthine as substrate preincubated for 1 to 5 mins followed by substrate addition by Lineweaver-Burk plot analysis
Rattus norvegicus [20] = test: as §1, with “5” for “2.5”, “2” for “4”, “2.82” for “3.18”, “0.75” for “0.64”; assay type: functional
Rattus norvegicus [21] = test: as §1, with “5” for “2.5”, “24” for “4”, “3.35” for “3.18”, “0.5” for “0.64”; assay type: functional
Toll-like receptor 4 = Toll-like receptor 4 (Homo sapiens, UniProt O00206); test: Inhibition of human TLR4 signaling expressed in HEK-Blue cells co-expressing MD2/CD14 assessed as reduction in LPS-induced NF-kappaB activation-mediated SEAP production preincubated for 2 hrs followed by LPS stimulation for 20 hrs by colorimetric assay; assay type: cell-based
Sequence of Toll-like receptor 4 (O00206 whole entry): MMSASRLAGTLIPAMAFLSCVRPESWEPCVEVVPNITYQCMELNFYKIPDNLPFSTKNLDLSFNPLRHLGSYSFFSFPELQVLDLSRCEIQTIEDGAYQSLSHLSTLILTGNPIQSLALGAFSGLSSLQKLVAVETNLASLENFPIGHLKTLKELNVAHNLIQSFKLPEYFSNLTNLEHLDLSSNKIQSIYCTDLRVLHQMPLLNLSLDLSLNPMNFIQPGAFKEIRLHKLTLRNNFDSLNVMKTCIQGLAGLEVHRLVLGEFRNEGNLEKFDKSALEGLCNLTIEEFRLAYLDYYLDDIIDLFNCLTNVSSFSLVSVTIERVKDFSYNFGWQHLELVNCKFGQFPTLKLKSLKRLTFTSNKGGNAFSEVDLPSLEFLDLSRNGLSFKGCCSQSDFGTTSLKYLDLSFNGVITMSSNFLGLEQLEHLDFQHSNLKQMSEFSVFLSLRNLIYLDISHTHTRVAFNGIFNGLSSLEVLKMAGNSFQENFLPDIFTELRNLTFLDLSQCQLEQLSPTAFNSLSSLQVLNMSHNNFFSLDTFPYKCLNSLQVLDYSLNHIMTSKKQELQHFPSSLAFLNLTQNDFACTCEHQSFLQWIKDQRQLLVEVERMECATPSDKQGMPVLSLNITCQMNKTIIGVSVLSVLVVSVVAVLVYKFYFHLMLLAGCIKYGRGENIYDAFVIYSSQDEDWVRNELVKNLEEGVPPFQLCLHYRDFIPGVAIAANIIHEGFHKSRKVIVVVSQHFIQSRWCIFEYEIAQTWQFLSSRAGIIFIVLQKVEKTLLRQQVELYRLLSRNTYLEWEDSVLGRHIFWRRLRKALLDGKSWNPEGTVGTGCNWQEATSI

Rattus norvegicus [22] = test: Inhibition of MSU-induced IL-1beta level in synovial homogenate of acute gouty arthritis Sprague-Dawley rat model at 2.5 to 10 mg/kg, po qd pretreated via gavage for 5 days followed by MSU treatment at 1 hr post last dose measured up to 24 hrs by ELISA; assay type: functional, organism-based
Rattus norvegicus [23] = test: as §1, with “5” for “2.5”, “8” for “4”, “3.27” for “3.18”, “0.56” for “0.64”; assay type: functional
Mus musculus [24] = test: In vivo inhibition of XOD activity in liver of Kunming mouse model of potassium oxonate-induced hyperuricemia at 2.5 mg/kg, po treated 1 hr post potassium oxonate addition measured after 1 hr relative to control; assay type: functional
[25] = target: NACHT, LRR and PYD domains-containing protein 3 (Homo sapiens, UniProt Q96P20); test: Inhibition of NLRP3 inflammasome in human THP1 cells assessed as reduction in MSU-induced IL-1beta production preincubated for 1 hr followed by MSU stimulation measured after 6 hrs; assay type: cell-based
Sequence of NACHT, LRR and PYD domains-containing protein 3 (Q96P20 whole entry, the tested form may be a part): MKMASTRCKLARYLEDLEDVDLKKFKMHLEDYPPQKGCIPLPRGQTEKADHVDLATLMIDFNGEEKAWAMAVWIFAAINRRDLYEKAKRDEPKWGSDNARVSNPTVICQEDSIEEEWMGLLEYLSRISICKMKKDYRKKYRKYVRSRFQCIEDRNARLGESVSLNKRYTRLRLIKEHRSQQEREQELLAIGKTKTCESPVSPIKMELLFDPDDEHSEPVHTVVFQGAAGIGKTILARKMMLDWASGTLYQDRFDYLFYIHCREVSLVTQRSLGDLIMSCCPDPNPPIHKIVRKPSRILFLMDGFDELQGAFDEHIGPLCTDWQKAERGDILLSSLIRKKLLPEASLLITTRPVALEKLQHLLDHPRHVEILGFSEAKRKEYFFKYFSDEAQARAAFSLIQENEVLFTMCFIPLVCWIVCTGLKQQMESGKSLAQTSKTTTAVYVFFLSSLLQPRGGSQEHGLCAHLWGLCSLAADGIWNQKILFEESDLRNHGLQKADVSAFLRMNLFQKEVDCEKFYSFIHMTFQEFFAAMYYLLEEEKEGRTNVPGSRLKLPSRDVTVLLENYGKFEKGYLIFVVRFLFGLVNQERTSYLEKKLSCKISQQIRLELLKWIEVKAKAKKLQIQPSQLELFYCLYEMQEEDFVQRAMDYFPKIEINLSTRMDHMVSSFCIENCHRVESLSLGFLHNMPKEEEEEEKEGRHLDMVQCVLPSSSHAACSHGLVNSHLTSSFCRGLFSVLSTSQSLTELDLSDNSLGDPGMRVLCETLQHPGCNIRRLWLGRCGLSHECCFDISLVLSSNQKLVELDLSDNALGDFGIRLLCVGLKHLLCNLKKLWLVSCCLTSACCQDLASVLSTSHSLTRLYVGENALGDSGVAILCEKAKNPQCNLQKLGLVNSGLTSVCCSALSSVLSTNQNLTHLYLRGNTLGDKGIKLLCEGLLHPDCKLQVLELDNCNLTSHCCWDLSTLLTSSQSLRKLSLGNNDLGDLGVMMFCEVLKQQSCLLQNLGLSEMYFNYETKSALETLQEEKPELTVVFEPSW

Rattus norvegicus [26] = test: as §1, with “12” for “4”, “3.51” for “3.18”, “0.52” for “0.64”; assay type: functional
Rattus norvegicus [27] = test: Inhibition of MSU-induced ASC protein level in synovial homogenate of acute gouty arthritis Sprague-Dawley rat model at 2.5 to 10 mg/kg, po qd pretreated via gavage for 5 days followed by MSU treatment at 1 hr post last dose measured up to 24 hrs by Western blot method; assay type: functional, organism-based
Mus musculus [28] = test: Anti-hyperuricemic effect in Kunming mouse assessed as inhibition of potassium oxonate-induced serum uric acid level administered po 1 hr post potassium oxonate addition measured after 1 hr by phosphotungstic acid method; assay type: functional, organism-based
Rattus norvegicus [29] = test: as §1, with “8” for “4”, “3.27” for “3.18”, “0.56” for “0.64”; assay type: functional
Rattus norvegicus [30] = test: Antiarthritic activity in po dosed MSU-induced acute gouty arthritis Sprague-Dawley rat model assessed as reduction in ankle swelling pretreated qd via gavage for 5 days followed by MSU treatment at 1 hr post last dose measured after 24 hrs; assay type: functional, organism-based

## COc1ccc(C/C(=N\O)c2nc3ccc(OC)cc3o2)cc1
Rattus norvegicus [1]
  Activity: 2.95 cm
Rattus norvegicus [2]
  Activity: 2.79 cm
Mus musculus [3]
  inhibition in vivo at 10 mg/kg: 41.9%
Rattus norvegicus [4]
  Activity: 2.7 cm
Rattus norvegicus [5]
  Activity: 2.78 cm
Rattus norvegicus [6]
  inhibition: Active
Rattus norvegicus [7]
  Activity: 2.65 cm
Rattus norvegicus [8]
  inhibition: Active
[9]
  IC50: 3700 nM
Rattus norvegicus [10]
  Activity: 2.56 cm
Rattus norvegicus [11]
  Activity: 2.97 cm
Mus musculus [12]
  inhibition at 5 mg/kg: 6.8%
Rattus norvegicus [13]
  Activity: 2.99 cm
Mus musculus [14]
  inhibition at 10 mg/kg: 10.2%
Rattus norvegicus [15]
  Activity: 2.73 cm
Rattus norvegicus [16]
  Activity: 2.72 cm
Rattus norvegicus [17]
  Activity: 2.7 cm
Rattus norvegicus [18]
  inhibition: Active
[19]
  Ki: 2890 nM
Rattus norvegicus [20]
  Activity: 2.56 cm
Rattus norvegicus [21]
  Activity: 2.8 cm
Toll-like receptor 4
  IC50: 540 nM
Rattus norvegicus [22]
  inhibition: Active
Rattus norvegicus [23]
  Activity: 2.88 cm
Mus musculus [24]
  inhibition in vivo at 2.5 mg/kg: 19.2%
[25]
  IC50: 1220 nM
Rattus norvegicus [26]
  Activity: 3.14 cm
Rattus norvegicus [27]
  inhibition: Active
Mus musculus [28]
  inhibition: Dose-dependent effect
Rattus norvegicus [29]
  Activity: 2.96 cm
Rattus norvegicus [30]
  Activity: Dose-dependent effect
